What follows are compounds tested on NL-RLuc virus (assay: Inhibition of HIV replication (NL-RLuc virus, luciferase readout in MT-2 cells)). Conditions: Human immunodeficiency virus 1, MT2, 120 h, read-out: Activity.
Type: cell-based
Excerpt: Inhibition of HIV Replication:
A recombinant NL-RLuc proviral clone was constructed in which a section of the nef gene from NL4-3 was replaced with the Renilla Luciferase gene. This virus is fully infectious and can undergo multiple cycles of replication in cell culture. In addition, the luciferous reporter provides a simple and easy method for quantitating the extent of virus growth and consequently, the antiviral activity of test compounds. The plasmid pNLRLuc contains the proviral NL-Rluc DNA cloned into pUC18 at the PvuII site. The NL-RLuc virus was prepared by transfection of 293T cells with the plasmid pNLRLuc. Transfections were performed using the LipofectAMINE PLUS kit from Invitrogen (Carlsbad, Calif.) according to the manufacturer and the virus generated was titered in MT-2 cells. For susceptibility analyses, the titrated virus was used to infect MT-2 cells in the presence of compound, and after 5 days of incubation, cells were processed and quantitated for virus growth by the amount of expressed luciferase. Assay media was RPMI 1640 supplemented with 10% heat inactivated fetal bovine serum (FBS), 100 units/ml penicillin G/100 units/ml streptomycin, 10 mM HEPES buffer pH 7.55 and 2 mM L-glutamine. The results from at least 2 experiments were used to calculate the EC50 values. Luciferase was quantitated using the Dual Luciferase kit from Promega (Madison, Wis.). Susceptibility of viruses to compounds was determined by incubation in the presence of serial dilutions of the compound. The 50% effective concentration (EC50) was calculated by using the exponential form of the median effect equation where (Fa)=1/[1+(ED50/drug conc.)^m] (Johnson V A, Byington R T. Infectivity Assay. In Techniques in HIV Research. ed. Aldovini A, Walker BD. 71-76. New York: Stockton Press. 1990). Activity equal to A refers to a compound having an EC50<100 nM, while B and C denote compounds having an EC50 between 100 nM and 1 uM (B) or >1 uM (C).

**Q.** How did the EC50 turn out when `CCOCCOCCOCc1nc(C)c([C@H](OC(C)(C)C)C(=O)O)c(-c2ccc3c(c2)CCCO3)c1-c1ccc(OCCc2ccc(F)cc2)cc1` [Example 18, (S)-2-(tert-Butoxy)-2-(4-(chroman-6-yl)-6-((2-(2-ethoxyethoxy)ethoxy)methyl)-5-(4-(4-fluorophenethoxy)phenyl)-2-methylpyridin-3-yl)acetic Acid] was run?
**A.** < 0.1 µM

**Q.** `Cc1ccc(-c2c(-c3ccc(OCc4ccc(F)cc4)cc3)c(C)nc(C)c2[C@H](OC(C)(C)C)C(=O)O)cc1` [Example 5, (S)-2-(tert-Butoxy)-2-(5-(4-((4-fluorobenzyl)oxy)phenyl)-2,6-dimethyl-4-(p-tolyl)pyridin-3-yl)acetic Acid] was tested. Which EC50 did it give?
**A.** 0.1 to 1 µM

**Q.** With `Cc1cccc(F)c1CN1CCc2cc(-c3c(CCCC4CCOCC4)nc(C)c([C@H](OC(C)(C)C)C(=O)O)c3-c3ccc4c(c3)CCCO4)ccc2C1` [Example 68, (S)-2-(tert-Butoxy)-2-(4-(chroman-6-yl)-5-(2-(2-fluoro-6-methylbenzyl)-1,2,3,4-tetrahydroisoquinolin-6-yl)-2-methyl-6-(3-(tetrahydro-2H-pyran-4-yl)propyl)pyridin-3-yl)acetic Acid] as the compound, how does the EC50 read?
**A.** < 0.1 µM

**Q.** Which EC50 does the source give for `Cc1ccc(-c2c(-c3ccc4c(c3)CCN(Cc3c(C)cccc3F)C4)c(C)nc(C)c2[C@H](OC(C)(C)C)C(=O)O)cc1` [Example 41, (S)-2-(tert-Butoxy)-2-(5-(2-(2-fluoro-6-methylbenzyl)-1,2,3,4-tetrahydroisoquinolin-6-yl)-2,6-dimethyl-4-(p-tolyl)pyridin-3-yl)acetic Acid] here?
**A.** < 0.1 µM

**Q.** With `Cc1nc(COCC2COC2)c(-c2ccc(OCCc3ccc(F)cc3)cc2)c(-c2ccc3c(c2)CCCO3)c1[C@H](OC(C)(C)C)C(=O)O` [Example 16, (S)-2-(tert-Butoxy)-2-(4-(chroman-6-yl)-5-(4-(4-fluorophenethoxy)phenyl)-2-methyl-6-((oxetan-3-ylmethoxy)methyl)pyridin-3-yl)acetic Acid] as the compound, how does the EC50 read?
**A.** < 0.1 µM

**Q.** For `Cc1nc(C)c([C@H](OC(C)(C)C)C(=O)O)c(C2=CCC(C)(C)CC2)c1-c1ccc(OCCc2ccc(F)cc2)cc1` [Example 46, (S)-2-(tert-Butoxy)-2-(4-(4,4-dimethylcyclohex-1-en-1-yl)-5-(4-(4-fluorophenethoxy)phenyl)-2,6-dimethylpyridin-3-yl)acetic Acid], which EC50 is on record?
**A.** < 0.1 µM

**Q.** Which EC50 does the source give for `Cc1nc(C)c([C@H](OC(C)(C)C)C(=O)O)c(-c2ccc3c(c2)CCCO3)c1-c1ccc2c(c1)CCN(CCc1ccccc1F)C2` [Example 30, (S)-2-(tert-Butoxy)-2-(4-(chroman-6-yl)-5-(2-(2-fluorophenethyl)-1,2,3,4-tetrahydroisoquinolin-6-yl)-2,6-dimethylpyridin-3-yl)acetic Acid] here?
**A.** < 0.1 µM

**Q.** With `Cc1nc(N)c(-c2ccc(OCCc3ccc(F)cc3)cc2)c(-c2ccc3c(c2)CCCO3)c1[C@H](OC(C)(C)C)C(=O)O` [Example 59, (S)-2-(6-Amino-4-(chroman-6-yl)-5-(4-(4-fluorophenethoxy)phenyl)-2-methylpyridin-3-yl)-2-(tert-butoxy)acetic Acid] as the compound, how does the EC50 read?
**A.** < 0.1 µM

**Q.** How did the EC50 turn out when `Cc1cccc(Cl)c1CN1CCc2cc(-c3c(CN(C)CC4CCOCC4)nc(C)c([C@H](OC(C)(C)C)C(=O)O)c3-c3ccc4c(c3)CCCO4)ccc2C1` [Example 35, (S)-2-(tert-Butoxy)-2-(5-(2-(2-chloro-6-methylbenzyl)-1,2,3,4-tetrahydroisoquinolin-6-yl)-4-(chroman-6-yl)-2-methyl-6-((methyl((tetrahydro-2H-pyran-4-yl)methyl)amino)methyl)pyridin-3-yl)acetic Acid] was run?
**A.** < 0.1 µM

**Q.** `Cc1nc(CN(C)CC2CCOCC2)c(-c2ccc(OCCc3ccc(F)cc3)cc2)c(-c2ccc3c(c2)CCCO3)c1[C@H](OC(C)(C)C)C(=O)O` [Example 13, (S)-2-(tert-Butoxy)-2-(4-(chroman-6-yl)-5-(4-(4-fluorophenethoxy)phenyl)-2-methyl-6-((methyl((tetrahydro-2H-pyran-4-yl)methyl)amino)methyl)pyridin-3-yl)acetic Acid] was tested. Which EC50 did it give?
**A.** < 0.1 µM

Same assay, conditions: Human immunodeficiency virus 1, MT2, 120 h, read-out: EC50 μM

**Q.** Which EC50 does the source give for `Cc1nc(C)c([C@H](OC(C)(C)C)C(=O)O)c(C2=CCC(C)(C)CC2)c1-c1ccc(OCCc2ccc(F)cc2)cc1` [Example 46, (S)-2-(tert-Butoxy)-2-(4-(4,4-dimethylcyclohex-1-en-1-yl)-5-(4-(4-fluorophenethoxy)phenyl)-2,6-dimethylpyridin-3-yl)acetic Acid] here?
**A.** 0.061 µM

From patent publication US10106504B2, “Pyridin-3-yl acetic acid derivatives as inhibitors of human immunodeficiency virus replication” (priority 2015, dated 2018)
